According to paper PMC12013085, “Peptides targeting RAB11A–FIP2 complex inhibit HPIV3, RSV, and IAV replication as broad-spectrum antivirals” (Cell & Bioscience, 2025):
Where a SMILES comes first, the peptide text is derived from it.

What was measured:
[1] = In vivo biodistribution of Cy5-YT-DRI, IVIS imaging; conditions: BALB/c mice, i.p. administration
Description: Female BALB/c mice, aged 6–8 weeks, were randomly divided into two groups. One group received an intraperitoneal injection of PBS (n = 3) for background fluorescence measurement, while the other group received 5 mg/kg Cy5-YT-DRI (n = 3). Bioluminescence readings were performed at various time points using the IVIS Lumina K Series III. Following imaging, mice were euthanized, and the indicated tissues were collected for further evaluation of fluorescence values. The average radiance is expressed as the sum of photons per second from each pixel inside the region of interest per the number of pixels (p s^−1 cm^−2 sr^−1).
Supplementary file 13578_2025_1384_MOESM7_ESM.tif: Supplementary Material 7. Fig. S7. In Vivo biodistribution of Cy5-YT-DRI. (A) Mice were treated with PBS or Cy5-YT-DRI (5mg/kg) via intraperitoneal injection. Bioluminescence readings were conducted at different time points using the IVIS Lumina K Series III for ventral (the upper row) and dorsal (the lower row) views, and the average radiance is expressed as the sum of the photons per second from each pixel inside the region of interest per the number of pixels (p s−1 cm−2 sr−1). (B-F) Representative images of the brains(B), lungs (C), livers (D), kidneys (E), and hearts (F) from the PBS-treated or Cy5-YT-DRI-treated mice. (G) Normalized bioluminescence results are expressed as means ± SEM from at least two experiments. […]

[2] = test system: HeLa, A549, MK2, MDCK and HEp-2 cells; conditions: CCK-8, 24 h treatment, in the tested cell lines (HeLa, A549, MK2, MDCK, HEp-2)
HPIV3 VLPs in 293T cells = test: HPIV3 VLP budding and plasma membrane fraction assay, WB; assay type: cell-based; conditions: 293T cells, compared to Tat-treated control
Description: (§1) Data are presented as means ± SEM
The cell lysates were prepared as described for the Western blot (WB) analysis. The supernatant was harvested and clarified by centrifugation at 12,000×g for 5 min. Subsequently, the supernatant was pelleted through a 20% sucrose cushion at 4 °C at 35,000 rpm for 2 h. The VLP pellets obtained were resuspended in PBS and boiled with SDS-PAGE loading buffer at 100 °C for 10 min. Both the cell lysates and the supernatants were then subjected to WB analysis.
293T cells, cultured in 6-cm dishes, were transfected with the indicated plasmids for 24 h. Cell collection was performed through centrifugation at 500×g for 5 min at 4 °C. Subsequently, cytosol, organelle membrane, and plasma membrane-associated proteins were extracted sequentially using the MinuteTM plasma membrane protein isolation and cell fractionation kit (INVENT), following the manufacturer's instructions.

RSV [3] = assay type: in vivo, nude BALB/c mice
EV71 = assay type: cell-based, Enterovirus 71; conditions: HeLa cells, EV71 MOI = 0.1, escalating concentrations, 24 hpi, TCID50
HPIV3HA-P vRNP = test: vRNP distribution by immunofluorescence in HPIV3HA-P-infected HeLa cells; assay type: cell-based; conditions: HPIV3HA-P MOI = 0.01, 5 μM peptide, 24 h
Description: as §1
HeLa cells were cultured on coverslips in 24-well plates overnight and subjected to transfection or/and virus infection as indicated. Following this, cells were fixed with 4% paraformaldehyde for 20 min at room temperature (RT) and permeabilized with 0.2% Triton X-100 for 20 min at RT. Subsequently, cells were blocked with 3% bovine serum albumin (BSA) in PBS for 30 min at RT. The cells were then incubated with primary antibodies diluted in 1% BSA, followed by incubation with secondary antibodies, also diluted in 1% BSA. Nuclei were counterstained with DAPI, and plasma membrane were stained with Dil. Confocal microscopy images were acquired using a Leica confocal microscope.

RSV [4] = test system: RSV
HPIV3, RSV, and IAV = assay type: cell-based
[5] = test system: HPIV3 clinical strain VR93; assay type: in vivo, nude BALB/c mice
RAB11A–FIP2 complex = test: In vitro co-IP of mixed 293T lysates (FIP2, N protein, RAB11A)
Description: 293 T cells were individually transfected with plasmids encoding FIP2, the N protein, and RAB11A for 36 h, after which their lysates were mixed for in vitro co-IP analysis. […] All experiments were independently replicated at least twice with consistent results. Statistical significance (*p < 0.05) was determined by two-sided unpaired t-test. Data are presented as means ± SEM
293T cells were transfected with the indicated plasmids for 36 h, and cell lysates were prepared using lysis buffer as described in the Western blot (WB) analysis section. The supernatants were collected and incubated with anti-Flag or anti-Myc magnetic beads (MCE) following the manufacturer’s instructions for co-IP. The immunoprecipitated proteins were then analyzed via WB.

[6] = In vivo drug toxicity study; conditions: male ICR mice, 5 or 10 mg/kg i.p. for consecutive 3 days
Description: The 6–8 weeks old male ICR male mice, were randomly assigned into three groups and each group had 5 mice. The mice were i.p. injected with 5 mg/kg YT-DRI, 10 mg/kg YT-DRI, or the same volume of PBS for consecutive 3 days. During the experiment, body weight was recorded for 15 days. At the end of the experiment, the mice were perfused, and tissue samples of heart, liver, lung, and kidney were collected for histopathological examination.
Supplementary file 13578_2025_1384_MOESM8_ESM.tif: Supplementary Material 8. Fig. S8. In vivo safety of YT-DRI. (A) Body weight changes of the 6-week-old ICR mice treated with PBS or 5 mg/kg or 10 mg/kg of YT-DRI at the indicated time points. (B) Hematoxylin and eosin staining of various tissues under an optical microscope for histopathological morphology analysis at 14 days after i.p. administration. Scale bar, 200 μm.

WSN virus = assay type: in vivo, BALB/c mice
IAV = assay type: cell-based, influenza A virus; conditions: IAV MOI 0.01, 5 μM, 24 hpi, TCID50

## CC[C@@H](C)[C@@H](NC(=O)[C@@H](CC(=O)O)NC(=O)[C@@H](CC(N)=O)NC(=O)[C@@H](CC(C)C)NC(=O)[C@@H](CC(C)C)NC(=O)[C@H](NC(=O)[C@@H](CCCNC(=N)N)NC(=O)[C@H](NC(=O)[C@@H](CCSC)NC(=O)[C@@H](CCC(=O)O)NC(=O)[C@@H](CCC(=O)O)NC(=O)[C@H](NC(=O)[C@@H](CCCNC(=N)N)NC(=O)[C@@H](CCCCN)NC(=O)[C@@H](CCCCN)NC(=O)[C@@H](CCCNC(=N)N)NC(=O)[C@@H](CCCNC(=N)N)NC(=O)[C@@H](CCC(N)=O)NC(=O)[C@@H](CCCNC(=N)N)NC(=O)[C@@H](CCCNC(=N)N)NC(=O)[C@H](N)CCCNC(=N)N)[C@H](C)O)C(C)C)C(C)C)C(=O)N[C@H](Cc1ccc(O)cc1)C(=O)O [YT-DRI] (HELM PEPTIDE1{[dR].[dR].[dR].[dQ].[dR].[dR].[dK].[dK].[dR].[dT].[dE].[dE].[dM].[dV].[dR].[dV].[dL].[dL].[dN].[dD].[dI].[dY]}$$$$V2.0; N-terminus and C-terminus assumed)
[1]
  transport across the blood–brain barrier: facilitated transport across the blood–brain barrier
[2]
  CC50: > 150000 nM
HPIV3
  HPIV3 viral growth in WT HeLa cells: significant reduction in viral growth
  effect on HPIV3 in RAB11A-KO HeLa cells: moderate and statistically insignificant
HPIV3; 36 h
  IC50: 940 nM
  SI (CC50/IC50), HPIV3, A549: > 263.16
  SI (CC50/IC50), HPIV3, HeLa: > 159.57
  SI (CC50/IC50), HPIV3, MDCK: > 102.74
HPIV3 VLPs in 293T cells
  levels of N, P, and M proteins in the PM fraction and VLPs: reduced levels
RSV [3]; 2 mg/kg i.p. once daily Day 0 to Day 3, vs PBS, n = 5
  body weight loss, RSV-infected mice: reduced body weight loss
RSV [3]; 2 mg/kg i.p., 4 dpi, H&E
  lung histology, RSV: diminished lung tissue damage
RSV [3]; 2 mg/kg i.p., 4 dpi, RT-qPCR
  viral RNA copies in the lung, RSV: lower viral RNA copies
RSV [3]; 2 mg/kg i.p., 4 dpi, TCID50
  infectious titers in the lung, RSV: decreased infectious titers
EV71
  EV71 replication, treated compared to untreated cells: no significant differences
HPIV3HA-P vRNP
  vRNP localization: formation of large aggregates of vRNP in the cytoplasm
RSV [4]; 2 h
  SI (CC50/IC50), RSV, A549: > 405.41
  SI (CC50/IC50), RSV, HEp-2: > 681.82
  SI (CC50/IC50), RSV, HeLa: > 220.59
  SI (CC50/IC50), RSV, MDCK: > 326.09
RSV [4]; RSV MOI 0.1, 5 μM, 24 hpi, TCID50
  antiviral effect on RSV infection in RAB11A-KO HeLa cells: no significant antiviral effect
HPIV3, RSV, and IAV
  replication of HPIV3, RSV, and IAV in coinfection (viral RNA accumulation): markedly impeded the replication
[5]; 2 mg/kg i.p. once daily Day 0 to Day 2, vs PBS, n = 5
  body weight loss, HPIV3-infected mice: less weight loss
[5]; 2 mg/kg i.p., 3 dpi, H&E, vs PBS
  lung histology, HPIV3: reduced lung inflammation
[5]; 2 mg/kg i.p., 3 dpi, RT-qPCR
  viral RNA copies in the lung, HPIV3: significantly decreased
[5]; 2 mg/kg i.p., 3 dpi, TCID50
  infectious titers in the lung, HPIV3: significantly decreased
RAB11A–FIP2 complex
  N-RAB11A interaction: undetectable
RAB11A–FIP2 complex; in contrast to control peptide Tat
  interaction between FIP2 and RAB11A: significantly attenuated
[6]; body weight recorded for 15 days, 5 mice per group
  acute toxicity: body weight: no significant changes
[6]; heart, liver, lung, kidney, H&E
  acute toxicity: histopathological morphology: no significant changes
WSN virus; 2 mg/kg i.p. once daily Day 0 to Day 4
  body weight loss, IAV (WSN)-infected mice: reduced body weight loss
WSN virus; 2 mg/kg i.p. once daily Day 0 to Day 4, observed until 14 dpi, n = 5
  survival rate, lethal IAV (WSN) infection: 80%
WSN virus; 2 mg/kg i.p., 4 dpi, RT-qPCR, vs PBS
  viral RNA copies in the lungs, IAV (WSN): decreased viral RNA copies
WSN virus; 2 mg/kg i.p., 4 dpi, vs PBS
  lung histology, IAV (WSN): milder lung inflammation
IAV
  antiviral effect on IAV infection in RAB11A-KO HeLa cells: no significant antiviral effect
